For 20 compounds, GI50 results are on record in patent EP4782450A1, “NOVEL SKELETAL DERIVATIVE EFFECTIVE FOR HER2 MUTATION, AND PHARMACEUTICAL COMPOSITION COMPRISING SAME” (Hanmi Pharm. Co., Ltd., priority 2023, dated 2025).

In assay [1] the test system is Ba/F3 HER2 A775insYVMA. Description: Growth inhibition of Ba/F3 cells engineered to overexpress HER2 A775_G776insYVMA (CellTiter-Glo luminescence). The conditions noted are these: Mus musculus, BaF3, 72 hours, concentrations 1000 to 0.32 nM, read-out: Ba/F3 HER2^YVMA GI50 class. The format is cell-based. The procedure: (§1) Experimental Example: Growth inhibition of Ba/F3 HER2 A775insYVMA and wild-type Ba/F3 cells
(§2) In this Experimental Example, the compounds obtained in Examples 1 to 92 were evaluated for their ability to inhibit growth of cells harboring either the HER2 A775insYVMA mutation or wild-type EGFR. For this purpose, Ba/F3 cells (ATCC, USA) were genetically engineered to overexpress either HER2 A775_G776insYVMA or wild-type EGFR, and the growth of these engineered Ba/F3 cells were monitored in the presence of the compounds described in the Examples to evaluate their effects on growth inhibition.
(§3) Specifically, culture flasks of the engineered Ba/F3 cells suspended in RPMI 1640 medium supplemented with 10% fetal bovine serum (FBS) and 1% penicillin/streptomycin (Gibco BRL, USA) were placed in a cell incubator and incubated at 37°C and 5% CO2 level to allow them to reach a stable logarithmic growth phase. The cells were then harvested by centrifugation to remove the old media and placed into a 96-well plate by dividing them into 100 µL aliquots per well at a dilution of 1×10^5 cells/mL in fresh media. Each of the compounds prepared in the preceding Examples were dissolved in 99.5% (cell culture grade) dimethylsulfoxide (DMSO) to prepare a stock solution of 10 mM concentration, which were serially diluted in the culture medium to final concentrations of 1000, 200, 40, 8, 1.6 and 0.32 nM for HER2 A775insYVMA Ba/F3 cells and concentrations of 10000, 5000, 1000, 200, 40 and 8 nM for wild-type EGFR overexpressing Ba/F3 cells.
(§4) To each aliquot of cells in the 96-well plate, a 50 µL test solution comprising one of the compounds was added to result in each well a 150 µL volume of cells with a compound in a final concentration ranging from 10 µM to 0.32 nM. The Ba/F3 cells treated with the test solution were incubated for 72 hours at 37°C and 5% CO2 level and underwent a 30-minute acclimation by placing the 96-well plate carrying the cells in ambient temperature. Thereafter, to each well was added 50 µL CellTiter-Glo® Luminescent Cell Assay Reagent (CTG, Promega, USA). After allowing 10 minutes to stabilize the signal, luminescence intensity was measured using a microplate reader. The half-maximal growth inhibition concentration (GI50) was calculated from the luminescence readout of the test compounds with the difference between the initial and final cell densities for the well untreated with a compound set at 100% growth. Nonlinear regression analysis based on log[inhibitor] vs. normalized response mode of the Graph Prism software was used for calculating GI50 for each compound, which are summarized in Table 6. The calculated GI50 values are classified in Table 6 into four categories: A for GI50 values less than 100 nM, B for GI50 values more than 100 nM but less than 1,000 nM, C for GI50 values more than 1,000 nM but less than 5,000 nM, and D for GI50 values of more than 5,000 nM.
(In ATP-based viability assays light output follows the ATP content of the culture.)

Assay [2] relates to wild-type EGFR overexpressing Ba/F3 cells. Description: Growth inhibition of Ba/F3 cells engineered to overexpress wild-type EGFR (CellTiter-Glo luminescence). The format is cell-based. The conditions noted are these: Mus musculus, BaF3, 72 hours, concentrations 10000 to 8 nM, read-out: Ba/F3 EGFR^WT GI50 class. As to the method: as §1, §2, §3, §4

Turning to `C=CC(=O)N(C)C/C=C/c1ccc2ncnc(Nc3cc(C)c(Oc4ccc5c(c4)ncn5C)cc3OC)c2n1` [Example 54, (E)-N-(3-(4-((2-methoxy-5-methyl-4-((1-methyl-1H-benzo[d]imidazol-5-yl)oxy)phenyl)amino)pyrido[3,2-d]pyrimidin-6-yl)allyl)-N-methylacrylamide], the GI50 in assay [1] is < 0.1 µM; in assay [2] it was > 5 µM.
In the case of `C=CC(=O)N1CCCC[C@H]1C#Cc1ccc2ncnc(Nc3ccc(Oc4ccc5c(c4)ncn5C)c(C)c3)c2n1` [Example 89, (S)-1-(2-((4-((3-methyl-4-((1-methyl-1H-benzo[d]imidazol-5-yl)oxy)phenyl)amino)pyrido[3,2-d]pyrimidin-6-yl)ethynyl)piperidin-1-yl)prop-2-en-1-one], the values for the GI50 in assay [1] and in assay [2] were < 0.1 µM and 1 to 5 µM, respectively.
As for `C=CC(=O)N(C)C/C=C/c1ccc2ncnc(Nc3ccc(Oc4ccc5c(c4)ncn5C)c(C)c3)c2n1` [Example 23, (E)-N-methyl-N-(3-(4-((3-methyl-4-((1-methyl-1H-benzo[d]imidazol-5-yl)oxy)phenyl)amino)pyrido[3,2-d]pyrimidin-6-yl)aryl)acrylamide], the results for the GI50 in assay [1] and in assay [2] were < 0.1 µM and > 5 µM, respectively.
With `C=CC(=O)N1CCCC[C@@H]1C#Cc1ccc2ncnc(Nc3ccc(Oc4ccc5c(c4)ncn5C)c(C)c3)c2n1` [Example 88, (R)-1-(2-((4-((3-methyl-4-((1-methyl-1H-benzo[d]imidazol-5-yl)oxy)phenyl)amino)pyrido[3,2-d]pyrimidin-6-yl)ethynyl)piperidin-1-yl)prop-2-en-1-one], the GI50 was < 0.1 µM in assay [1] and 1 to 5 µM in assay [2].
The corresponding values for `C=CC(=O)N1CCC[C@H]1C#Cc1ccc2ncnc(Nc3ccc(Oc4ccn5ncnc5c4)c(C)c3)c2n1` [Example 81, (S)-1-(2-((4-((4-([1,2,4]triazolo[1,5-a]pyridin-7-yloxy)-3-methylphenyl)amino)pyrido[3,2-d]pyrimidin-6-yl)ethynyl)pyrrolidin-1-yl)prop-2-en-1-one] are < 0.1 µM and 0.1 to 1 µM.
In the case of `C=CC(=O)N(C)CCNc1ncc2ncnc(Nc3ccc(Oc4ccn5ncnc5c4)c(C)c3)c2n1` [Example 12, N-(2-((8-((4-([1,2,4]triazolo[1,5-a]pyridin-7-yloxy)-3-methylphenyl)amino)pyrimido[5,4-d]pyrimidin-2-yl)amino)ethyl)-N-methylacrylamide], the GI50 in assay [1] and in assay [2] was 1 to 5 µM throughout.
Turning to `Cc1cc(Nc2ncnc3ccc(/C=C/CNC(=O)/C=C/CN4CCCCC4)nc23)ccc1Oc1ccc2c(c1)ncn2C` [Example 59, (E)-N-((E)-3-(4-((3-methyl-4-((1-methyl-1H-benzo[d]imidazol-5-yl)oxy)phenyl)amino)pyrido[3,2-d]pyrimidin-6-yl)allyl)-4-(piperidin-1-yl)but-2-enamide], the GI50 in assay [1] was < 0.1 µM; in assay [2] it was 1 to 5 µM.
As to `C=CC(=O)N1CCCC[C@H]1C#Cc1ncc2ncnc(Nc3ccc(Oc4ccc5c(c4)ncn5C)c(C)c3)c2n1` [Example 92, (S)-1-(2-((8-((3-methyl-4-((1-methyl-1H-benzo[d]imidazol-5-yl)oxy)phenyl)amino)pyrimido[5,4-d]pyrimidin-2-yl)ethynyl)piperidin-1-yl)prop-2-en-1-one], the GI50 in assay [1] and in assay [2] was 0.1 to 1 µM in each case.
Take `C=CC(=O)N(C)CC#Cc1ncc2ncnc(Nc3ccc(Oc4ccc5c(c4)ncn5C)c(C)c3)c2n1` [Example 72]: the GI50 in assay [1] was 0.1 to 1 µM; in assay [2] it was < 0.1 µM.
In the case of `C=CC(=O)NC/C=C/c1ccc2ncnc(Nc3ccc(Oc4ccn5ccnc5c4)c(C)c3)c2n1` [Example 39, (E)-N-(3-(4-((4-(imidazo[1,2-a]pyridin-7-yloxy)-3-methylphenyl)amino)pyrido[3,2-d]pyrimidin-6-yl)allyl)acrylamide], the values for the GI50 in assay [1] and in assay [2] were < 0.1 µM and 0.1 to 1 µM, respectively.
On the same counts, the results for `C=CC(=O)N(C)CC#Cc1ccc2ncnc(Nc3ccc(Oc4ccn5ncnc5c4)c(C)c3)c2c1` [Example 65, N-(3-(4-((4-([1,2,4]triazolo[1,5-a]pyridin-7-yloxy)-3-methylphenyl)amino)quinazolin-6-yl)prop-2-yn-1-yl)-N-methylacrylamide] are < 0.1 µM and 0.1 to 1 µM.
With `C=CC(=O)N1CCCC[C@@H]1C#Cc1ccc2ncnc(Nc3ccc(Oc4ccn5ncnc5c4)c(C)c3)c2n1` [Example 82, (R)-1-(2-((4-((4-([1,2,4]triazolo[1,5-a]pyridin-7-yloxy)-3-methylphenyl)amino)pyrido[3,2-d]pyrimidin-6-yl)ethynyl)piperidin-1-yl)prop-2-en-1-one], the GI50 in assay [1] was < 0.1 µM; in assay [2], 0.1 to 1 µM.
For `C=CC(=O)NCCOc1ccc2ncnc(Nc3ccc(Oc4ccc5c(c4)ncn5C)c(C)c3)c2n1` [Example 7, N-(2-((4-((3-methyl-4-((1-methyl-1H-benzo[d]imidazol-5-yl)oxy)phenyl)amino)pyrido[3,2-d]pyrimidin-6-yl)oxy)ethyl)acrylamide], the GI50 in assay [1] was 0.1 to 1 µM; in assay [2] it was > 5 µM.
Take `C=CC(=O)NCCOc1ccc2ncnc(Nc3ccc(Oc4ccc5c(c4)ncn5C)c(C)c3)c2c1` [Example 10, N-(2-((4-((3-methyl-4-((1-methyl-1H-benzo[d]imidazol-5-yl)oxy)phenyl)amino)quinazolin-6-yl)oxy)ethyl)acrylamide]: the results for the GI50 in assay [1] and in assay [2] were < 0.1 µM and 1 to 5 µM, respectively.
Consider `C=CC(=O)N1CCC[C@@H]1C#Cc1ccc2ncnc(Nc3ccc(Oc4ccn5ncnc5c4)c(C)c3)c2n1` [Example 80, (R)-1-(2-((4-((4-([1,2,4]triazolo[1,5-a]pyridin-7-yloxy)-3-methylphenyl)amino)pyrido[3,2-d]pyrimidin-6-yl)ethynyl)pyrrolidin-1-yl)prop-2-en-1-one], for which the GI50 is < 0.1 µM in assay [1] and 0.1 to 1 µM in assay [2].
As for `C=CC(=O)N(C)C(C)/C=C/c1ccc2ncnc(Nc3ccc(Oc4ccc5c(c4)ncn5C)c(C)c3)c2n1` (stereo not shown) [Example 50, (E)-N-methyl-N-(4-(4-((3-methyl-4-((1-methyl-1H-benzo[d]imidazol-5-yl)oxy)phenyl)amino)pyrido[3,2-d]pyrimidin-6-yl)but-3-en-2-yl)acrylamide], the GI50 was < 0.1 µM in assay [1] and 1 to 5 µM in assay [2].
As to `C=CC(=O)N(C)CCN(C)c1ccc2ncnc(Nc3ccc(Oc4ccn5ncnc5c4)c(C)c3)c2n1` [Example 13, N-(2-((4-((4-([1,2,4]triazolo[1,5-a]pyridin-7-yloxy)-3-methylphenyl)amino)pyrido[3,2-d]pyrimidin-6-yl)(methyl)amino)ethyl)-N-methylacrylamide], the GI50 in assay [1] was 0.1 to 1 µM; in assay [2], 1 to 5 µM.
In the case of `C=CC(=O)N(C/C=C/c1ccc2ncnc(Nc3ccc(Oc4ccc5c(c4)ncn5C)c(C)c3)c2n1)C(C)(C)C` [Example 53, (E)-N-(tert-butyl)-N-(3-(4-((3-methyl-4-((1-methyl-1H-benzo[d]imidazol-5-yl)oxy)phenyl)amino)pyrido[3,2-d]pyrimidin-6-yl)allyl)acrylamide], the GI50 in assay [1] was < 0.1 µM; in assay [2], 1 to 5 µM.
As to `C=CC(=O)N1CCC[C@@H]1C#Cc1ccc2ncnc(Nc3ccc(Oc4ccc5c(c4)ncn5C)c(C)c3)c2c1` [Example 85, (R)-1-(2-((4-((3-methyl-4-((1-methyl-1H-benzo[d]imidazol-5-yl)oxy)phenyl)amino)quinazolin-6-yl)ethynyl)pyrrolidin-1-yl)prop-2-en-1-one], the GI50 in assay [1] was < 0.1 µM; in assay [2], 0.1 to 1 µM.
For the compound `C=CC(=O)N(C)CCOc1cc2c(Nc3ccc(Oc4ccn5ncnc5c4)c(C)c3)ncnc2cc1OC` [Example 2, N-(2-((4-((4-([1,2,4]triazolo[1,5-a]pyridin-7-yloxy)-3-methylphenyl)amino)-7-methoxyquinazolin-6-yl)oxy)ethyl)-N-methylacrylamide], the GI50 was < 0.1 µM in assay [1] and 0.1 to 1 µM in assay [2].
